According to ChEMBL document CHEMBL1201862, “PubChem BioAssay data set” (2004):
Values joined by “and” are separate entries in the source; they are usually repeats but may differ in a detail not shown here. Identical values can stand only once. Active and inactive are the calls of the source.

Tests used:
[1] = target: T1, Endoribonuclease toxin MazF (Escherichia coli K-12, UniProt P0AE70); test: substrate-only fluorescence increase artefacts – biochemical, single-stranded RNase substrate, counter-screen for MazEF activator project, dose response (AID 588502); type: functional
T1 sequence (P0AE70 whole entry): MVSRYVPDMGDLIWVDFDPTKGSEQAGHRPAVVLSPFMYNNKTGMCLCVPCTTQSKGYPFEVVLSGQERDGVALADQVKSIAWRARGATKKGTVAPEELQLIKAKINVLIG

[2] = target: T1, Endoribonuclease toxin MazF; test: activation of MazEF endoribonuclease cleavage – biochemical, fluorescence, single-stranded RNA substrate, uHTS hits, dose response (AID 588481); type: functional
[3] = target: T2, Nucleotide-binding oligomerization domain-containing protein 1 (Homo sapiens, UniProt Q9Y239); test: blockers of NOD1 pathway activity – revised, SAR follow-up (AID 2333); type: functional
T2 sequence (Q9Y239 whole entry): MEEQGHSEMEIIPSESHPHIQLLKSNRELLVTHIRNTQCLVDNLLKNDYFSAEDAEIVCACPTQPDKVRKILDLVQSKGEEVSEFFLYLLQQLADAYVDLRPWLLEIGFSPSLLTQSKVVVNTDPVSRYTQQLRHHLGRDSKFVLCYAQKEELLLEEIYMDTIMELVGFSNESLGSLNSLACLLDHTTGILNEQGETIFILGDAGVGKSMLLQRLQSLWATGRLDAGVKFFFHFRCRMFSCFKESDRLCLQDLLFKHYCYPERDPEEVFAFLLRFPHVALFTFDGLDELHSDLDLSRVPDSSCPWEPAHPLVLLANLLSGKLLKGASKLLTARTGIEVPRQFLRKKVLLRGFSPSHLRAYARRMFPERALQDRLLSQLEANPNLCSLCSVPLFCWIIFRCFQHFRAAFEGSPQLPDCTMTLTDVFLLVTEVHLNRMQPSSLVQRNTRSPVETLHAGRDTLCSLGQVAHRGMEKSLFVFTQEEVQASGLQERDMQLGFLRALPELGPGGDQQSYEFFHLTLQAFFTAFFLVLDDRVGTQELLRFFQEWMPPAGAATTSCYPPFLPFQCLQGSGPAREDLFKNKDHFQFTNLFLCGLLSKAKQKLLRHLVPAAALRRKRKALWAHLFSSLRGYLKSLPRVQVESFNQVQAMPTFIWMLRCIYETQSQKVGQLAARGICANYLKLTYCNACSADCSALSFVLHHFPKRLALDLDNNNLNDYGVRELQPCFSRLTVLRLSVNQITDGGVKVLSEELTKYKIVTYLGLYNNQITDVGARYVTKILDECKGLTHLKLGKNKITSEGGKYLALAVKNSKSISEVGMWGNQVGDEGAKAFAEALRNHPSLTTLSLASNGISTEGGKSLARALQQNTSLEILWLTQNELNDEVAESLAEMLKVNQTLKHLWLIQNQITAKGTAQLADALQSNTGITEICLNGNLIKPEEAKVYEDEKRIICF

[4] = test system: HEK293; test: inhibition of NOD1-driven NF-kB reporter – cell-based, luminescence, uHTS, primary screen (AID 1578); type: functional; conditions: Homo sapiens
[5] = test system: HEK293; test: cells; conditions: Homo sapiens
[6] = test system: HEK293; test: cells; type: functional, cell-based; conditions: Homo sapiens
[7] = test system: HEK293; test: NOD2 signaling inhibitors in MDP-stimulated cells, cell-based, uHTS, luminescence (AID 2001); type: functional; conditions: Homo sapiens
[8] = test system: HEK293; test: cells; type: functional, cell-based; conditions: Homo sapiens; remark: listed apart in the source
[9] = target: Tumor necrosis factor (Homo sapiens, UniProt P01375); test: analog potency on TNFa NF-kB signaling – cell-based, revised, SAR follow-up (AID 2337); type: functional
[10] = target: T3, Nuclear receptor subfamily 0 group B member 1 (Homo sapiens, UniProt P51843); test: Luminescence-based cell-based high throughput dose response assay for inhibitors of the orphan nuclear receptor subfamily 0, group B, member 1 (DAX1; NR0B1). [Related pubchem assays (depositor defined):AID504766, AID504790]; type: functional
T3 sequence (P51843 whole entry): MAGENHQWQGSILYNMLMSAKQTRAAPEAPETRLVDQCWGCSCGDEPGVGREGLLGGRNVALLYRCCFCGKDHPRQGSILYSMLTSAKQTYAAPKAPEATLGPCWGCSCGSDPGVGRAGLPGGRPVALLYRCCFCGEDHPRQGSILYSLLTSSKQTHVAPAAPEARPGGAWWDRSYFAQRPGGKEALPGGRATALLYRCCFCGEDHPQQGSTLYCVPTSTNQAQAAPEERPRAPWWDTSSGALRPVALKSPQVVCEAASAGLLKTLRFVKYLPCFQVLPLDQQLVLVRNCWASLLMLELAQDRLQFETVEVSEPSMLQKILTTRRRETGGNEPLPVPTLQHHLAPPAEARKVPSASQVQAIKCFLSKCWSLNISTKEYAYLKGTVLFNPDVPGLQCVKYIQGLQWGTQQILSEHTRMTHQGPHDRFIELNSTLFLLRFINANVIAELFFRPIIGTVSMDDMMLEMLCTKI

[11] = test system: HEK293; test: cells; type: functional, cell-based; conditions: Homo sapiens; remark: listed apart in the source
[12] = target: ATP-dependent molecular chaperone HSP82 (Candida albicans (strain WO-1) (Yeast), UniProt C4YTQ8); test: steroid-induced GRE reporter decrease in yeast – S. cerevisiae, luminescence, Hsp90 inhibitor project, dose response (AID 2400); type: functional, cell-based;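 note: beta-galactosidase luminescence from glucocorticoid response element reporter as proxy for Hsp90 function; inhibitor potency where signal loss means Hsp90 inhibition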
[13] = blockers of HIV-1 ZM109 envelope-driven cell-cell fusion – HeLa effector, CEM target cells, luciferase, cherry-pick, dose response (AID 652058); type: functional, cell-based;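 note: luciferase signal from HIV-1 Env mediated cell-cell fusion of effector and target cells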
[14] = NIH-3T3 fibroblast cytotoxicity, dose response, cytotoxicity control, cell-based, fluorescence, Alamar Blue, secondary assay (AID 2327); type: functional;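 note: NIH-3T3 mouse fibroblasts cultured with fluconazole at 8 µg/mL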
[15] = fluconazole-exposed Candida albicans growth modulators – fluorescence, retest, confirmation (AID 2467); type: functional, cell-based
[16] = viability loss in CEM21 cells – cell-based, CellTiter-Glo luminescence, cherry-picked, cytotoxicity control for viral fusion inhibitor project, dose response (AID 652042); type: functional;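 note: potency for signal decrease meaning cytotoxicity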
[17] = off-target signal loss in HeLa-CEM21 co-culture – HeLa F-luc CTL cells, cherry-picked, counter-screen for HIV-1 Env fusion inhibitor project, dose response (AID 652040); type: functional, cell-based;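 note: potency for signal decrease marking cytotoxic or nonspecific inhibition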
[18] = blockers of HIV-1 envelope-mediated cell-cell fusion – cherry-pick, dose response (AID 652057); type: functional, cell-based
[19] = target: Serine/threonine-protein phosphatase (Candida dubliniensis (strain CD36 / CBS 7987 / NCPF 3949 / NRRLY-17841) (Yeast), UniProt B9W6M3); test: blockers of CaCl2-induced CDRE-lacZ signaling – S. cerevisiae, luminescence, secondary, dose response (AID 2388); type: functional, cell-based;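 note: yeast reporter cells carrying a calcineurin-responsive lacZ construct stimulated with calcium chloride; luminescent beta-galactosidase reporter signal in whole cells rather than isolated phosphatase activity; potency for inhibition where a drop in reporter signal means calcineurin blockade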
[20] = HIV-1 AD8 envelope cell-cell fusion blockers – cherry-pick, dose response (AID 652062); type: functional, cell-based;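 note: luciferase signal from cell-cell fusion driven by HIV-1 clade B AD8 Env; potency is for inhibitors of fusion seen as a drop in luminescence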
[21] = target: T4, Tyrosine-protein phosphatase non-receptor type 7 (Homo sapiens, UniProt P35236); test: SAR analysis of chemical inhibitors of HePTP using a Fluorescent assay - Set 2. [Related pubchem assays (depositor defined):AID1059, AID1077, AID1661, AID2085, AID521]; type: functional
T4 sequence (P35236 whole entry): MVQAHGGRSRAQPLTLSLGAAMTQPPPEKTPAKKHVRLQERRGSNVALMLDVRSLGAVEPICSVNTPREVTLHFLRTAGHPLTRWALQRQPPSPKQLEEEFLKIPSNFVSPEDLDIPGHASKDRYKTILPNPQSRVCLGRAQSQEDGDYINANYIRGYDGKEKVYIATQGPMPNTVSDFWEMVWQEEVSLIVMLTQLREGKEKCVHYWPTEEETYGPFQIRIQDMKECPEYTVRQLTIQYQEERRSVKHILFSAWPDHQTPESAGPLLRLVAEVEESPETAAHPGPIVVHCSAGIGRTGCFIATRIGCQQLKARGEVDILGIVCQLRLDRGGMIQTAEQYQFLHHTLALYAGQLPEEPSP

[22] = target: DNA dC->dU-editing enzyme APOBEC-3G (Homo sapiens, UniProt Q9HC16); test: Dose Response confirmation of small molecule APOBEC3G DNA Deaminase Inhibitors via a fluorescence-based single-stranded DNA deaminase assay. [Related pubchem assays (depositor defined):AID493012, AID493028]; type: functional
[23] = target: T5, Dual specificity protein phosphatase 3 (Homo sapiens, UniProt P51452); test: SAR VHR1 Fluorescent Assay for In Vitro dose response studies Set 2. [Related pubchem assays (depositor defined):AID1654, AID1661, AID1878]; type: functional
[24] = target: T4, Tyrosine-protein phosphatase non-receptor type 7; test: redox-active compounds inhibiting HePTP phosphatase – biochemical, fluorescence, mechanism study (AID 2068); type: functional
[25] = target: T5, Dual specificity protein phosphatase 3; test: SAR VHR1 absorbance Assay for In Vitro dose response studies. [Related pubchem assays (depositor defined):AID1654, AID1661, AID1878, AID1992, AID2004]
[26] = target: T4, Tyrosine-protein phosphatase non-receptor type 7; test: inhibition of hematopoietic tyrosine phosphatase HePTP – biochemical, set 2, SAR follow-up (AID 449736); type: functional
[27] = target: T6, Dual specificity protein phosphatase 6 (Rattus norvegicus, UniProt Q64346); test: SAR analysis of inhibitors of MKP-3 - Set 2. [Related pubchem assays (depositor defined):AID1055, AID1661, AID425, AID553, AID566]; type: functional
T6 sequence (Q64346 whole entry): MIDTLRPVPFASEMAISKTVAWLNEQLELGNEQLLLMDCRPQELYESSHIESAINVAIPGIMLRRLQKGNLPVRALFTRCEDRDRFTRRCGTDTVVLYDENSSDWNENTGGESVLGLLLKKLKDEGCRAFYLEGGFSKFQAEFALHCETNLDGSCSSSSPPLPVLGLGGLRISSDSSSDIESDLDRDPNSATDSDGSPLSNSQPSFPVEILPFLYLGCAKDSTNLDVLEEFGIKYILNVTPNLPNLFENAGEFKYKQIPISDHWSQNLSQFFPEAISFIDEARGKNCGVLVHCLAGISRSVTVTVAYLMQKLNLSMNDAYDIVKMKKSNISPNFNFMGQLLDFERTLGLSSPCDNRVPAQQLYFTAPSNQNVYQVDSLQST

[28] = target: T6, Dual specificity protein phosphatase 6; type: functional
[29] = target: T5, Dual specificity protein phosphatase 3; test: SAR VHR1 Fluorescent Assay for In Vitro dose response studies. [Related pubchem assays (depositor defined):AID1654, AID1661, AID1878, AID1992, AID2004, AID2070, AID2085]; type: functional
[30] = target: DNA dC->dU-editing enzyme APOBEC-3A (Homo sapiens, UniProt P31941); test: A3A deaminase inhibition for selectivity – biochemical, dose response (AID 504722); type: functional
[31] = test system: INS1; test: INS-1E survival protection against cytokine death – cell-based, luminescence, retest, dose response (AID 449756); type: functional; conditions: Rattus norvegicus;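 note: cell death triggered by IL-1 beta plus TNF-alpha plus IFN-gamma mixture; protective hits raise ATP signal compared with cytokine alone wells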
[32] = target: T7, Polyadenylate-binding protein 1 (Homo sapiens, UniProt P11940); test: MLLE domain peptide-binding blockers, IC50 – biochemical, fluorescence polarization, FITC-PAM2 peptide, dose response (AID 602259); type: functional; conditions: read-out: IC50_Mean
[33] = target: T7, Polyadenylate-binding protein 1; test: MLLE binding blockers, Cy5 peptide tracer – biochemical, fluorescence polarization, Cy5-PAM2 peptide, secondary, miRNA deadenylation inhibitor project, dose response (AID 602260); type: functional; conditions: read-out: IC50_Mean

T5 sequence (P51452 whole entry): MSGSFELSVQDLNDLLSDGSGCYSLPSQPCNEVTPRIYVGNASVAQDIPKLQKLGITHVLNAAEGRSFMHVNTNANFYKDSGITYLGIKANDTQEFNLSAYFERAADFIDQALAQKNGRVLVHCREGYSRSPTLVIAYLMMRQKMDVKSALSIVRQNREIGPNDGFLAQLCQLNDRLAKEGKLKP
Sequence of Serine/threonine-protein phosphatase (B9W6M3 whole entry, the tested form may be a part): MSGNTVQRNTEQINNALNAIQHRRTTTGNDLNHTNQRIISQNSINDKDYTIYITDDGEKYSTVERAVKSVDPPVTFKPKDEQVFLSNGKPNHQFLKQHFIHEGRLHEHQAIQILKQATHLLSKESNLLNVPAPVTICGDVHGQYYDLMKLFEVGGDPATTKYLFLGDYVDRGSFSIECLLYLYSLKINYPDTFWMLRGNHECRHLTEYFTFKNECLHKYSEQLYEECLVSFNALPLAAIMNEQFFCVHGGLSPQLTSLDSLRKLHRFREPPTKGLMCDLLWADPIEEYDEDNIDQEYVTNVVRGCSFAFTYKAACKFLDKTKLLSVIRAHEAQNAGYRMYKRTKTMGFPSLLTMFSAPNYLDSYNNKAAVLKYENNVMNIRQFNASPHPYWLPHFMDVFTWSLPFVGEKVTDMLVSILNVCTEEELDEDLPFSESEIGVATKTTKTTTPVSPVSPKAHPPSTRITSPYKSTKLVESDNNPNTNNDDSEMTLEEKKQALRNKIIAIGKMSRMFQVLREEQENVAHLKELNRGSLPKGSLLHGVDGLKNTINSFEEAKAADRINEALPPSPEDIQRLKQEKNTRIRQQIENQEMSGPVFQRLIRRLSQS
Sequence of ATP-dependent molecular chaperone HSP82 (C4YTQ8 whole entry, the tested form may be a part): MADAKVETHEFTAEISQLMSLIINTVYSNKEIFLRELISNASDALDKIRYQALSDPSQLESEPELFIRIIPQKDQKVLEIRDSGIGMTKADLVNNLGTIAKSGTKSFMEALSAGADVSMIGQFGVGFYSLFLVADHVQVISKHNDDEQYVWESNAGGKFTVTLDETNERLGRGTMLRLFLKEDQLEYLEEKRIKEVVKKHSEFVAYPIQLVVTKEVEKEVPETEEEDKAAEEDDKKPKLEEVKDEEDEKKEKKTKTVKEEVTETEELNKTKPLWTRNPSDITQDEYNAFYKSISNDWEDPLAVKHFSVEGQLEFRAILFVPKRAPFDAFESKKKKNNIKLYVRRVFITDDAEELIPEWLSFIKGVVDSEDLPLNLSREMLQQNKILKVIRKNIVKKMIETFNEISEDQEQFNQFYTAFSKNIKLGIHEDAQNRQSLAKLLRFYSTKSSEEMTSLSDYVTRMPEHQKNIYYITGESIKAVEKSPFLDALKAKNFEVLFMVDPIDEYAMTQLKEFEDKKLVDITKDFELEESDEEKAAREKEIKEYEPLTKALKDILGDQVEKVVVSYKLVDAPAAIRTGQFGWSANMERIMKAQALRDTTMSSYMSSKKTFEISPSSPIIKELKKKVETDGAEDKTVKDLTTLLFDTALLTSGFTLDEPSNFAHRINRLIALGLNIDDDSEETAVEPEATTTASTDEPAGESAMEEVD
T7 sequence (P11940 whole entry, the tested form may be a part): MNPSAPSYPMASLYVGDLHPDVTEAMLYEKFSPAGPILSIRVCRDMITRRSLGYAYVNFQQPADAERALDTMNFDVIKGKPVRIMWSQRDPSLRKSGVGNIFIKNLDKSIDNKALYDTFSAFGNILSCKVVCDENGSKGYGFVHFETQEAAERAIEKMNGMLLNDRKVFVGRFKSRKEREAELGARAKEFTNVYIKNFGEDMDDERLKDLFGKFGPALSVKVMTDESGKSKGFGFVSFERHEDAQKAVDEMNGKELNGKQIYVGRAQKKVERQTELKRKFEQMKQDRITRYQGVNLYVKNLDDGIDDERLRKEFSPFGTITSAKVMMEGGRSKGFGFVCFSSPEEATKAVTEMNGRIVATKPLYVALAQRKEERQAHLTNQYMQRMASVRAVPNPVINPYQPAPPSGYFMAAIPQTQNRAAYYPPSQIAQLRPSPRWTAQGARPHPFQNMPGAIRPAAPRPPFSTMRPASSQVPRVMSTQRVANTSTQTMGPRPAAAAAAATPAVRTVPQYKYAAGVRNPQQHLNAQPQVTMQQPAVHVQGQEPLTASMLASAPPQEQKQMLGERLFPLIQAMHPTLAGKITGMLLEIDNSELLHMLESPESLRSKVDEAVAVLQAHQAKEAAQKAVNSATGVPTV
Sequence of Tumor necrosis factor (P01375 whole entry): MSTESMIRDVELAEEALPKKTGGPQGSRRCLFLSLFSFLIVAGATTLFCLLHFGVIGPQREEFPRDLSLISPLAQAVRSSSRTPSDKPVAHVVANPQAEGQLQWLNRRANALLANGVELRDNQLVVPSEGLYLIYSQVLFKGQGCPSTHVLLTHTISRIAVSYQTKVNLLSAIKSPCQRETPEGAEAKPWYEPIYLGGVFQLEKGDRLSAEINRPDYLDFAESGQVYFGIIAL
Sequence of DNA dC->dU-editing enzyme APOBEC-3A (P31941 whole entry): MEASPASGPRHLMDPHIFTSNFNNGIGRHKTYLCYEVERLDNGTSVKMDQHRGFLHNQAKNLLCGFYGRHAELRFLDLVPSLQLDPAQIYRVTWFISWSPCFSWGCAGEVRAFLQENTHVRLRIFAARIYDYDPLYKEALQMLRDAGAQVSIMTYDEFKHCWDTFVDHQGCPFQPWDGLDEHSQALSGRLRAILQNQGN
Sequence of DNA dC->dU-editing enzyme APOBEC-3G (Q9HC16 whole entry): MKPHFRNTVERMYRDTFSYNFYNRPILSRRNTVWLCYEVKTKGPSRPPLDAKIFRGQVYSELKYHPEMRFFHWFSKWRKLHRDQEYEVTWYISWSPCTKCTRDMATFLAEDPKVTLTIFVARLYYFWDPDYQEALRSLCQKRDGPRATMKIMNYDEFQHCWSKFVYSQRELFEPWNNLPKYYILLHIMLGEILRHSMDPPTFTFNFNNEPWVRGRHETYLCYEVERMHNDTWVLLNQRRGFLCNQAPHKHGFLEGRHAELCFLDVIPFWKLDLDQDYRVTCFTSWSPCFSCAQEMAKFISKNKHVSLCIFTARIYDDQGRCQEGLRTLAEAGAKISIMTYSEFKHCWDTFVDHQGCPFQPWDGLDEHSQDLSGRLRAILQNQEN

## COC(=O)CSc1nc2ccc(C)cc2cc1C#N
[1]
  EC50: > 99 µM (inactive)
[2]
  EC50: > 99 µM (inactive)

## Cc1cc(NC(=O)CSc2nc(-c3ccccc3Cl)nc3c2c(=O)n(C)c(=O)n3C)no1
[1]
  EC50: > 99 µM (inactive)
[2]
  EC50: > 99 µM (inactive)

## c1ccc(-c2csc3ncnc(NCc4ccccn4)c23)cc1
[3]
  IC50: 3.2 µM (active)
[4]
  EC50: 3.17 µM (active)
[5]
  IC50: 11.5 µM (active)
[6]
  IC50: 16.3 µM (active)
[7]
  IC50: 7.16 µM (active)
[8]
  IC50: 6.34 µM (active)
[9]
  IC50: 4.23 µM (active)

## CCSc1nnc(NC(=O)C2CCCN(S(=O)(=O)c3c[nH]cn3)C2)s1 (stereo unspecified)
[10]
  IC50: > 67.5 µM (inactive)
[11]
  IC50: > 67.5 µM (inactive)

## C(=C\c1ccccc1)/CN1CCN(c2ncnc3c2oc2ccccc23)CC1
[12]
  EC50: > 160 µM (inactive)
[13]
  AC50: 0.57 µM (active)
[14]
  EC50: > 160 µM (inconclusive)
[15]
  EC50: 0.041 µM (active)
[16]
  AC50: 65.4 µM (active)
[17]
  AC50: 25.9 µM (active)
[18]
  AC50: 1.98 µM (active)
[19]
  EC50: > 180 µM (inactive)
[20]
  AC50: 9.31 µM (active)

## Cc1cccc(-n2c(N)c(C(=O)N3CCN(C)CC3)sc2=S)c1
[21]
  IC50: 4.7 µM (active)
[22]
  IC50: 12.2 µM (active)
[23]
  IC50: 0.96 µM (active)
[24]
  IC50: 0.108 µM (active)
[25]
  IC50: 3.32 µM (active)
[26]
  IC50: 3.6 µM (active) and 8.47 µM (active) and > 100 µM (inactive)
[27]
  IC50: > 100 µM (inactive)
[28]
  IC50: > 99 µM (inactive)
[29]
  IC50: > 99 µM (inactive)
[30]
  IC50: > 100 µM (inactive)

## Cc1ccc(NC(=O)c2ccccc2NS(=O)(=O)c2ccc(Cl)s2)cc1
[12]
  EC50: 7.91 µM (active)
[14]
  EC50: 20.5 µM (active)
[15]
  EC50: 0.215 µM (active)
[19]
  EC50: > 180 µM (inactive)
[31]
  AC50: 4.46 µM (active)

## Oc1c(/C=N/Cc2ccccc2)sc2ccccc12
[32]
  IC50: > 66 µM (inactive)
[10]
  IC50: > 67.5 µM (inactive)
[33]
  IC50: > 66 µM (inactive)
[11]
  IC50: > 22.5 µM (inactive)
